The values below come from PMC8151276, “An Integrated Approach toward NanoBRET Tracers for Analysis of GPCR Ligand Engagement” (Molecules, 2021).

What all share (assay type): binding
The target of one experiment is T1, SSTR3 (Homo sapiens, UniProt P32745).
T1 construct: purchased Promega (in-house HiBiT-GPCR construct library, NanoBRET)
Nature of the experiment: NanoBRET screen HiBiT-SSTR3 in HEK293. Here is the method: (§1) Each tracer candidate was screened across the entire library of HiBiT-GPCR constructs using NanoBRET as the detection modality. As depicted in Figure 4A, the specificity of interactions was evaluated through decrease in BRET due to competitive displacement of a bound tracer by excess parental compound. Each tracer was analyzed for binding to each HiBiT-GPCR fusion in the absence and in the presence of competing parental compound. Briefly, HEK293 cells were transfected with HiBiT-GPCR constructs diluted into promoterless DNA to reduce expression and maximize translocation to the cell surface. Each tracer candidate was then screened at concentrations of 1 μM and 0.1 μM across cells expressing these fusions. Cells were treated for 1.5 h with tracer either alone or in the presence of 20 μM competing parental compound (i.e., control). BRET was measured upon addition of purified LgBiT and subsequent complementation with HiBiT genetically fused to a GPCR. The specificity of interactions was assessed through a decrease in BRET signal due to competitive displacement of the bound tracer. To further gauge the robustness of these interactions, the fold response over the control (i.e., BRETtracer/BRETcontrol) was calculated. We chose a 1.5-fold response, which translates to ≥7-fold signal over noise as the minimal threshold required to score an interaction as positive. […]. Below we highlight the screening results obtained for our exemplary fluorescent tracers based on Clozapine, Amitriptyline and AZD1283.
(§2) HiBiT-GPCR DNA constructs were diluted in 10 mM Tris pH 8 to a final concentration of 0.01 μg/μL, arrayed in 96-well plates and stored at −20 °C. For transfection, HEK293 cells were suspended in Opti-MEM (without phenol red) supplemented with 2% fetal bovine serum (Seradigm) and 100 units/mL penicillin–streptomycin (Gibco) at a final concentration of 220,000 cells/mL and dispensed into white 96-well plates at 90 μL/well. Subsequent transfections and screens were carried using an Agilent Bravo Automated Liquid Handling Platform. First, the 96-well HiBiT DNA arrays were diluted 25-fold in Opti-MEM (without serum or phenol red) to a final concentration of 0.0004 μg/μL and 20 μL of the diluted DNAs were transferred into new 96-well plates. Next, promoterless carrier DNA (1 μg/μL) was diluted 25-fold (0.04 μg/μL) and then dispensed into the diluted arrays at 20 μL/well. Following brief mixing, Viafect transfection reagent (Promega) diluted 16-fold into Opti-MEM was dispensed into the plates at 40 μL/well. After mixing by pipetting, plates were incubated for 10 min on the pipetting station deck. The DNA-transfection reagent complexes were then added to plates containing cells. To facilitate the screen, 10 μL of DNA-transfection reagent complexes were added in duplicates to the top 4 and bottom 4 rows, resulting in two identical 48-well arrays per plate. Plates with transfected cells were incubated for 18–20 h at 37 °C/5% CO2. A screen of each tracer across the entire library using two different concentrations requires duplicate plates of transfected cells. Depending on the number of tracers being screened, transfections can be scaled up using the same ratios. The next day, for each tracer, four 20× screening solutions in tracer dilution buffer (Promega) were prepared: two duplicates at final concentration of 20 μM and two duplicates at a final concentration of 2 μM. A competing unmodified compound was added to one of each duplicate at a final concentration of 400 μM. The four resulting solutions were diluted 4-fold in Opti-MEM without serum or phenol red to generate 5× solutions (5 µM and 0.5 µM tracer +/− 100 μM competing compound). To screen the library, a BioTek MultiFlo FX liquid dispenser was used to dispense 22.5 µL of tracer solution to the top 4 rows and 22.5 µL tracer + competing compound solution to the 4 bottom rows. Plates were briefly mixed on an orbital shaker and incubated for 1.5 h at room temperature. […]
On the technique in general: In BRET a luciferase serves as donor, and the signal depends on an acceptor being close.

A further experiment concerns the target T2, HCRTR2 (Homo sapiens, UniProt O43614).
T2 construct: purchased Promega (in-house HiBiT-GPCR construct library, NanoBRET)
T2 sequence (O43614 1-444): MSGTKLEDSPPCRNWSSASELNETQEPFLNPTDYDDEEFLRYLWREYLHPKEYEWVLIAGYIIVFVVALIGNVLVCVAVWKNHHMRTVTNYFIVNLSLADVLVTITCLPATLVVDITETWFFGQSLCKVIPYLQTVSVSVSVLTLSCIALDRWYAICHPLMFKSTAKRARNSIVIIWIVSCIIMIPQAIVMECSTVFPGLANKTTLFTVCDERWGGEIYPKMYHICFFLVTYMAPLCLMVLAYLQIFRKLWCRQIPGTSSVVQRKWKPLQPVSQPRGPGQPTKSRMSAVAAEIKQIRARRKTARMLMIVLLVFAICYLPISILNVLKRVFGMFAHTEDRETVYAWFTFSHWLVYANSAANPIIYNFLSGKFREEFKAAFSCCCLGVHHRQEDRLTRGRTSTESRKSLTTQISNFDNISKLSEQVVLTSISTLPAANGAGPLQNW
Nature of the experiment: NanoBRET screen HiBiT-HCRTR2 in HEK293. How it is done: as §1, §2

The target in another experiment is T3, MCHR1 (Homo sapiens, UniProt Q99705).
T3 construct: purchased Promega (in-house HiBiT-GPCR construct library, NanoBRET)
Nature of the experiment: NanoBRET screen HiBiT-MCHR1 in HEK293. How it is done:
as §1, §2

The target in the next experiment is T4, CXCR4 (Homo sapiens, UniProt P61073).
T4 construct: purchased Promega (in-house HiBiT-GPCR construct library, NanoBRET)
The experiment in a line: NanoBRET screen HiBiT-CXCR4 in HEK293. How it is done: as §1, §2

Molecules are shown by their SMILES.

T4 sequence (P61073 whole entry): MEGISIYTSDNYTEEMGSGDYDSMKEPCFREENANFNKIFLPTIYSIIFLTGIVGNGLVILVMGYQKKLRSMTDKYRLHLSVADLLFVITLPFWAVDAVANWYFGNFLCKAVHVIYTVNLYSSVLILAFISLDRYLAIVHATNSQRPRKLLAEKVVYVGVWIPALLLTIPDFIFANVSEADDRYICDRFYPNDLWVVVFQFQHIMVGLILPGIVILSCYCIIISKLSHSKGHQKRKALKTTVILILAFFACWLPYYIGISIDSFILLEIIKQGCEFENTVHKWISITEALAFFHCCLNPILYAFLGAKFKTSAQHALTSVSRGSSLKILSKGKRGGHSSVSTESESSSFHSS
T3 sequence (Q99705 whole entry): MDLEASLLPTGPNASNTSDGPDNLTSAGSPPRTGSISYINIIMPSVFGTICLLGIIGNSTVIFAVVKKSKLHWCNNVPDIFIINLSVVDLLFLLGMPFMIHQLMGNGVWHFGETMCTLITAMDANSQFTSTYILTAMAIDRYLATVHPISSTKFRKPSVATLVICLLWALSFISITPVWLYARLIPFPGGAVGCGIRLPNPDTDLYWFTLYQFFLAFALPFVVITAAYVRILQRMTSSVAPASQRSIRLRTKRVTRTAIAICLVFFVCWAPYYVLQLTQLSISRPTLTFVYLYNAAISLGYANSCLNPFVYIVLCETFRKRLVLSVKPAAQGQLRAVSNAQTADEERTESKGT
T1 sequence (P32745 whole entry): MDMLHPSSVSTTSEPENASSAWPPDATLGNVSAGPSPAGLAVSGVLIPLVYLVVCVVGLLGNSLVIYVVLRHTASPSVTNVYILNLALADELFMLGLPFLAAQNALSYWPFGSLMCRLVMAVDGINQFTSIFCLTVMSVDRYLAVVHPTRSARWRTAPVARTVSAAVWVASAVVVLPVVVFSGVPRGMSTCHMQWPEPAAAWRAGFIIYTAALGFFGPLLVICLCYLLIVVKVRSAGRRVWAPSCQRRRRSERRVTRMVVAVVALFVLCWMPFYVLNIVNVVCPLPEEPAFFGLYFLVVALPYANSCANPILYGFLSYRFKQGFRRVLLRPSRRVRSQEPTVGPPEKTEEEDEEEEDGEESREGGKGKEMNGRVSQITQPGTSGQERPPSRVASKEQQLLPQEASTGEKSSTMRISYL

With `CN1CCN(C2=Nc3cc(Cl)ccc3N(CC(=O)NCCOCCOCCOCCOCCNC(=O)CCc3ccc4n3[B-](F)(F)[N+]3=C(c5ccc[nH]5)C=CC3=C4)c3ccccc32)CC1` [Clozapine-c-2-NB590], the “NanoBRET Fold Response” value at SSTR3 (SSTR3, 0.1μM tracer) is on record as 0.95; at SSTR3 (SSTR3, 1μM tracer), 1.02; on HCRTR2 (HCRTR2, 0.1μM tracer), 0.97; at HCRTR2 (HCRTR2, 1μM tracer), 1.04; on MCHR1 (MCHR1, 0.1μM tracer), 1.00; at MCHR1 (MCHR1, 1μM tracer), 0.93. For the same compound, the “NanoBRET Fold Response” value stood at 1.04 at CXCR4 (CXCR4, 0.1μM tracer) and 0.97 at CXCR4 (CXCR4, 1μM tracer).
As to `N#CN=C(NCCCOc1cccc(CN2CCCCC2)c1)NCCNC(=O)CCOCCOCCOCCOCCNC(=O)CCc1ccc2n1[B-](F)(F)[N+]1=C(c3ccc[nH]3)C=CC1=C2` [Aminopotentidine-2-NB590], the “NanoBRET Fold Response” value at SSTR3 (SSTR3, tracer 0.1μM) is given as 1.03; at SSTR3 (SSTR3, tracer 1μM), 0.99; at HCRTR2 (HCRTR2, tracer 0.1μM), 1.01; on HCRTR2 (HCRTR2, tracer 1μM) it was 0.97; on MCHR1 (MCHR1, tracer 0.1μM), 0.99; on MCHR1 (MCHR1, tracer 1μM) it was 0.95. In addition, the “NanoBRET Fold Response” value on CXCR4 (CXCR4, tracer 0.1μM) worked out at 1.08; at CXCR4 (CXCR4, tracer 1μM), 0.99.
`COc1ccc2c(n1)c(CCNC(C)=O)cn2CCNC(=O)CCc1ccc2n1[B-](F)(F)[N+]1=C(c3ccc[nH]3)C=CC1=C2` [Azamelatonin-1-NB590]: the “NanoBRET Fold Response” value on SSTR3 (0.1μM tracer) is on record as 1.03; at SSTR3 (1μM tracer) it was 1.08; on HCRTR2 (0.1μM tracer), 1.04; on HCRTR2 (1μM tracer), 1.30; at MCHR1 (0.1μM tracer), 0.96; on MCHR1 (1μM tracer) it was 0.84. The “NanoBRET Fold Response” value on CXCR4 (0.1μM tracer) is recorded as 1.11; at CXCR4 (1μM tracer), 0.82.
Consider `CC(C)N(CC[C@H](c1ccccc1)c1cc(CCNC(=O)c2ccc(CNC(=O)CCc3ccc4n3[B-](F)(F)[N+]3=C(c5ccc[nH]5)C=CC3=C4)cc2)ccc1O)C(C)C` [Tolterodine-BZ-NB590], for which the “NanoBRET Fold Response” value on SSTR3 (SSTR3, tracer 0.1μM) turned out to be 1.01; at SSTR3 (SSTR3, tracer 1μM), 1.04; at HCRTR2 (HCRTR2, tracer 0.1μM), 0.91; on HCRTR2 (HCRTR2, tracer 1μM), 1.06; at MCHR1 (MCHR1, tracer 0.1μM), 0.83; on MCHR1 (MCHR1, tracer 1μM) it was 0.95. Moreover, the “NanoBRET Fold Response” value came out at 0.94 on CXCR4 (CXCR4, tracer 0.1μM) and 1.03 on CXCR4 (CXCR4, tracer 1μM).
As for `O=C(CCc1ccc2n1[B-](F)(F)[N+]1=C(c3ccc[nH]3)C=CC1=C2)NCCOCCOCCNC(=O)OCCOCCN1CCN(C2=Nc3ccccc3Sc3ccccc32)CC1` [Quetiapine-a-2-NB590], the “NanoBRET Fold Response” value at SSTR3 (SSTR3, tracer 0.1μM) is listed as 0.96; at SSTR3 (SSTR3, tracer 1μM), 0.74; at HCRTR2 (HCRTR2, tracer 0.1μM), 1.01; on HCRTR2 (HCRTR2, tracer 1μM) it was 0.84; at MCHR1 (MCHR1, tracer 0.1μM), 1.04; on MCHR1 (MCHR1, tracer 1μM), 0.84. Also, the “NanoBRET Fold Response” value amounted to 0.98 at CXCR4 (CXCR4, tracer 0.1μM) and 0.97 on CXCR4 (CXCR4, tracer 1μM).
Consider `Cc1cc2c(s1)Nc1ccccc1N=C2N1CCN(CCCNC(=O)CCOCCOCCOCCOCCNC(=O)CCc2ccc3n2[B-](F)(F)[N+]2=C(c4ccc[nH]4)C=CC2=C3)CC1` [Olanzapine-a-2-NB590], for which the “NanoBRET Fold Response” value on SSTR3 (SSTR3, tracer 0.1μM) is listed as 0.99; on SSTR3 (SSTR3, tracer 1μM), 1.04; at HCRTR2 (HCRTR2, tracer 0.1μM), 0.95; at HCRTR2 (HCRTR2, tracer 1μM) it was 0.97; at MCHR1 (MCHR1, tracer 0.1μM), 1.04; on MCHR1 (MCHR1, tracer 1μM), 1.13. Also, the “NanoBRET Fold Response” value amounted to 1.04 on CXCR4 (CXCR4, tracer 0.1μM) and 1.10 on CXCR4 (CXCR4, tracer 1μM).
